From patent US11980633B2, “Method for treating cancer using a combination of DNA-damaging agents and DNA-PK inhibitors” (Vertex Pharmaceuticals Incorporated, priority 2016, dated 2024) come the findings set out here.

The test system of this assay is pKAP1 and pH2AX levels in DU4475 breast cancer cells. Kind of assay: pKAP1 and pH2AX immunoblot, Compound B-2 and doxorubicin in DU4475 breast cancer cells. In kind it is cell-based, human. Particulars: for pH2AX level, max enhancement vs doxorubicin alone: at 12 h. How it is done:
Materials and Methods. The human cancer cell lines A549 (CCL-185), DU4475 (HTB-123), MDA-MB-436 (HTB-130), and MDA-MB-468 (HTB-132) were obtained from American Type Culture Collection (ATCC; Manassas, VA). A 10 mM stock solution of Compound B-1 or Compound B-2 was prepared in DMSO and stored at −20° C. Etoposide and doxorubicin were purchased from Sigma-Aldrich (St. Louis, MO).
The A549 human lung cancer cell line was purchased from ATCC and was cultured in DMEM supplemented with 10% fetal bovine serum, 1× non-essential amino acids and 1× Penicillin/Streptomycin (complete medium). Cells were maintained at a subconfluent state by passaging every 2-3 days. Human breast cancer cells lines DU4475, MDA-MB-436, and MDA-MB-468 were purchased from ATCC and cultured in DMEM supplemented with 10% fetal bovine serum, 1× Glutamax and Penicillin/Streptomycin. Cells were maintained at a subconfluent state by passaging every 2-3 days.
Compound B-1 and Compound B-2 used in these experiments were not prepared as a co-crystals.
Breast cancer cell lines grown in 24-well (Costar, catalog #3526) or 6-well (Costar, catalog #3516) tissue culture plates to 70-80% confluence were pre-incubated with 1 μM Compound B-2 or DMSO for 15 min. Doxorubicin was added to a final concentration of either 100 nM or 500 nM from a 1000× stock prepared in DMSO. Cells were then incubated for the indicated amount of time and harvested for analysis.
Cell Lysis and Western Blot Analysis. Cells treated with Compound B-1 or Compound B-2 in combination with chemotherapeutic agents were washed once with ice-cold PBS and then dissolved in 150 μL/well 2×SDS-PAGE sample buffer, transferred to microfuge tubes, and heated in a 105° C. heat block for 5 min for immunoblotting. A 15-μL aliquot of each SDS-PAGE sample was loaded onto 12-lane 4 20% Tris-Glycine gels and the gels were run at 125v constant voltage until the dye front reached the bottom (approximately 2 h). Following electrophoresis, separated proteins in the gels were transferred to a nitrocellulose membrane. Transfer was carried out for 2 h at 1.5 A constant current in a cold room using a Hoefer transfer apparatus (Model TE42 or TE62, Hoefer Inc, Holliston, MA) according to manufacturer's instructions. Following transfer, nitrocellulose membranes were incubated with blocking buffer for 1 h at room temperature. The nitrocellulose membranes were cut and the bottom halves were incubated overnight with 2 primary antibodies, anti-pH2AX (1/1000) and anti-total H2AX (1/1000). After washing, the appropriate fluorescently labeled secondary antibodies were added to the membranes and then imaged with pH2AX on the 800 (green) channel and total H2AX on the 700 (red) channel. The top halves of the membranes were probed sequentially for pKAP1 (1/1000) on the 700 (red) channel and then probed for total KAP1 (1/1000) and GAPDH (1/2500) on the 800 (green) channel. Image acquisition was conducted using an Odyssey fluorescent imaging system (Li-Cor Biosciences; Lincoln, NE).
Compound B-2 and doxorubicin combination in breast cancer cell lines in culture. To examine the effect of DNA-PK inhibition on pKAP1 and pH2AX in vitro, DU4475 breast cancer cells were pre-incubated with 1 μM Compound B-2 for 15 min, followed by addition of 100 nM or 500 nM doxorubicin. Cells were harvested at various time points following doxorubicin addition and analyzed for levels of pKAP1 and pH2AX by immunoblotting.
A general note: In western blotting, separated proteins are transferred to a membrane and probed.

Consider `[2H]c1nc(C)nc([2H])c1-c1cc(NC[C@@H](C)c2cccc3c(C(=O)NC)ccnc23)ncn1` [Compound B-2], for which the “pKAP1 level, max enhancement vs doxorubicin alone” value by setting is: (1 μM Compound B-2 + 100 nM doxorubicin, at 12-24 h) 37-42 fold; (1 μM Compound B-2 + 500 nM doxorubicin, at 8 h) 19 fold. In addition, the “pH2AX level, max enhancement vs doxorubicin alone” value by setting is: (1 μM Compound B-2 + 100 nM doxorubicin) 2 fold; (1 μM Compound B-2 + 500 nM doxorubicin) 1.6 fold.
